{
  "source": "BindingDB's records for doi:10.1016/0960-894X(95)00494-E",
  "about": "(1995)",
  "target": "Xaa-Pro dipeptidase (Sus scrofa)",
  "assay": "Inhibitory activity against porcine kidney prolidase",
  "data": [
    {"molecule": "NCC(=O)[C@@H]1CCC[C@H]1C(=O)O", "note": "[2-((1R,2R)-2-Carboxy-cyclopentyl)-2-oxo-ethyl-ammonium; chloride]", "values": [
      {"measurement": "Ki", "value": 270, "unit": "nM"}
    ]}
  ]
}
